ChEMBL document CHEMBL1132132, “Synthesis of heparin partial structures and their binding activities to platelets” (1999)

Legend:
Type in all cases: functional
Homo sapiens [1] = organism: Homo sapiens; assay: Platelets binding activity relative to heparin was evaluated by competitive binding assay using [3H]-labeled heparin at concentration ~400 uM
Homo sapiens [2] = organism: Homo sapiens; assay: Platelets binding activity relative to heparin was evaluated by competitive binding assay using [3H]-labeled heparin at concentration ~1000 uM
Homo sapiens [3] = organism: Homo sapiens; assay: Platelets binding activity relative to heparin was evaluated by competitive binding assay using [3H]-labeled heparin at concentration 0.001 uM
Homo sapiens [4] = organism: Homo sapiens; assay: Platelets binding activity relative to heparin was evaluated by competitive binding assay using [3H]-labeled heparin at concentration ~1.2 uM
Homo sapiens [5] = organism: Homo sapiens; assay: Platelets binding activity relative to heparin was evaluated by competitive binding assay using [3H]-labeled heparin at concentration ~80 uM
Homo sapiens [6] = organism: Homo sapiens; assay: Platelets binding activity relative to heparin was evaluated by competitive binding assay using [3H]-labeled heparin at concentration ~1.9 uM
Homo sapiens [7] = organism: Homo sapiens; assay: Platelets binding activity relative to heparin was evaluated by competitive binding assay using [3H]-labeled heparin at concentration ~60 uM
Homo sapiens [8] = organism: Homo sapiens; assay: Platelets binding activity relative to heparin was evaluated by competitive binding assay using [3H]-labeled heparin at concentration ~50 uM

CO[C@H]1O[C@H](COS(=O)(=O)[O-])[C@@H](O[C@H]2O[C@H](C(=O)[O-])[C@@H](OC)[C@H](O)[C@H]2OS(=O)(=O)[O-])[C@H](O)[C@H]1NS(=O)(=O)[O-].[Na+].[Na+].[Na+].[Na+]
Binding (Homo sapiens [1]): 96% | Binding (Homo sapiens [2]): 97% | Binding (Homo sapiens [3]): 115% | Binding (Homo sapiens [4]): 96% | Binding (Homo sapiens [5]): 97%

CO[C@H]1O[C@H](CO)[C@@H](O[C@H]2O[C@H](C(=O)[O-])[C@@H](OC3O[C@H](COS(=O)(=O)[O-])[C@@H](OC)[C@H](O)[C@H]3NS(=O)(=O)[O-])[C@H](O)[C@H]2OS(=O)(=O)[O-])[C@H](O)[C@H]1NS(=O)(=O)[O-].[Na+].[Na+].[Na+].[Na+].[Na+] (stereo not given in full)
Binding (Homo sapiens [1]): 110% | Binding (Homo sapiens [2]): 110% | Binding (Homo sapiens [4]): 100% | Binding (Homo sapiens [6]): 100% | Binding (Homo sapiens [7]): 105%

CO[C@@H]1O[C@H](C(=O)[O-])[C@@H](O[C@H]2O[C@H](COS(=O)(=O)[O-])[C@@H](OC)[C@H](OS(=O)(=O)[O-])[C@H]2NS(=O)(=O)[O-])[C@H](O)[C@H]1OS(=O)(=O)[O-].[Na+].[Na+].[Na+].[Na+].[Na+]
Binding (Homo sapiens [1]): 115% | Binding (Homo sapiens [2]): 75% | Binding (Homo sapiens [4]): 100% | Binding (Homo sapiens [6]): 98% | Binding (Homo sapiens [5]): 100%

CO[C@H]1O[C@H](COS(=O)(=O)[O-])[C@@H](O[C@H]2O[C@H](C(=O)[O-])[C@@H](O[C@H]3O[C@H](COS(=O)(=O)[O-])[C@@H](OC)[C@H](O)[C@H]3NS(=O)(=O)[O-])[C@H](O)[C@H]2OS(=O)(=O)[O-])[C@H](O)[C@H]1NS(=O)(=O)[O-].[Na+].[Na+].[Na+].[Na+].[Na+].[Na+]
Binding (Homo sapiens [1]): 100% | Binding (Homo sapiens [2]): 97% | Binding (Homo sapiens [4]): 105% | Binding (Homo sapiens [6]): 105% | Binding (Homo sapiens [8]): 105%
